Experimental data reported in patent US20180237362A1, “NOVEL POLYGODIAL ANALOGS FOR THE TREATMENT OF CANCER AND OTHER PROLIFERATIVE DISEASES” (THE BOARD OF REGENTS OF THE UNIVERSITY OF TAXAS SYSTEM, priority 2015, published 2018).
Where two headings read alike, the source gives them in different places.

Columns and labels:
[1] = tested on: human A549 non-small cell lung cancer (NSCLC); experiment: MTT antiproliferative assay, A549; assay type: cell-based; settings: for GI50: 72 h treatment, MTT assay, sextuplicates, read-out: GI50 in vitro values, A549
Procedure: (§1) Human mammary carcinoma MCF-7 (ATCC HTB22) cells were cultured in RPMI supplemented with 10% FBS. The U87 cells (ATCC HTB-14) were cultured in DMEM culture medium, while the A549 cells (DSMZ ACC107) were cultured in RPMI culture medium supplemented with 10% heat-inactivated FBS. The GBM Hs683 (ATCC HTB-138) cells were cultivated in DMEM supplemented with 10% FBS. The human uterine sarcoma MES-SA (ATCC CRL1966) and MES-SA/D×5 cells were cultured in RPMI-1640 medium supplemented with 10% FBS with MES SA/D×5 maintained in the presence of 500 nM Doxorubicin (Sigma). SKMEL-28 cells (ATCC HTB72) and U373 GBM cells (ECACC 08061901) were cultured in RPMI culture medium supplemented with 10% heat-inactivated FBS. Cell culture media were supplemented with 4 mM glutamine (Lonza code BE17-605E), 100 μg/mL gentamicin (Lonza code 17-5182), and penicillin-streptomycin (200 units/ml and 200 μg/ml) (Lonza code 17-602E). The MDA-MB-231 (ATCC HTB-26) epithelial mammary adenocarcinoma cells were cultured in Eagle's minimum essential medium (EMEM; Invitrogen) containing 5% fetal calf serum (FCS, Cambrex), 2 mM L-glutamine (Invitrogen), 0.06% HEPES (Invitrogen) and penicillin (50 IU/ml)/streptomycin (50 µg/ml; Invitrogen) at 37° C. in a humidified atmosphere of 5% CO2 in air. Transformed mouse NPCs were cultured in suspension under neurosphere conditions at 37° C. in a humidified atmosphere of […] and 5% CO2 in DMEM F12 (Invitrogen 11320-074) supplemented with 1×B27 supplement (Invitrogen 17504-044), 5% penicillin-streptomycin (Biochrom 10378-017), 10 ng/ml EGF (R&D systems 236-EG), 10 ng/ml FGF (PeproTech 100-18B).
(§2) Antiproliferative properties of the synthesized compounds were evaluated by the MTT assay. All compounds were dissolved in DMSO at a concentration of either 100 μM or 50 μM prior to cell treatment. The cells were trypsinized and seeded at various cell concentrations depending on the cell type. The cells were grown for 24 h to 72 h, treated with compounds at concentrations ranging from 0.001 to 100 μM and incubated for 48 or 72 h in 100 or 200 μL media depending on the cell line used. The number of experiments and replicates varied depending on the cell line. Cells treated with 0.1% DMSO were used as a negative control; 1 μM PAO was used as a positive control.
(§3) The synthesized C12-Wittig derivatives were evaluated for antiproliferative activities in a panel of cancer cell lines that included apoptosis-resistant human U373 glioblastoma (GBM) (Lefranc et al., 2013), human A549 non-small cell lung cancer (NSCLC) and human SKMEL-28 melanoma (Mathieu et al., 2009) as well as apoptosis-sensitive human Hs683 anaplastic oligodendroglioma (Lefranc et al., 2013) and human MCF-7 breast cancer (Frolova et al., 2013).

[2] = tested on: human MCF-7 breast cancer; experiment: MTT antiproliferative assay, MCF-7; assay type: cell-based; settings: sextuplicates, read-out: GI50 in vitro values, MCF-7
Procedure: as §1, §2, §3

[3] = target: T1, vanilloid site of TRPV1 receptor from rats spinal cord membranes (Rattus norvegicus, UniProt O35433); experiment: [3H]-resiniferatoxin binding assay; settings: 2 nM [3H]-RTX
T1 construct: from tissue; host or cells: rat spinal cord membranes
T1 sequence (O35433 whole entry): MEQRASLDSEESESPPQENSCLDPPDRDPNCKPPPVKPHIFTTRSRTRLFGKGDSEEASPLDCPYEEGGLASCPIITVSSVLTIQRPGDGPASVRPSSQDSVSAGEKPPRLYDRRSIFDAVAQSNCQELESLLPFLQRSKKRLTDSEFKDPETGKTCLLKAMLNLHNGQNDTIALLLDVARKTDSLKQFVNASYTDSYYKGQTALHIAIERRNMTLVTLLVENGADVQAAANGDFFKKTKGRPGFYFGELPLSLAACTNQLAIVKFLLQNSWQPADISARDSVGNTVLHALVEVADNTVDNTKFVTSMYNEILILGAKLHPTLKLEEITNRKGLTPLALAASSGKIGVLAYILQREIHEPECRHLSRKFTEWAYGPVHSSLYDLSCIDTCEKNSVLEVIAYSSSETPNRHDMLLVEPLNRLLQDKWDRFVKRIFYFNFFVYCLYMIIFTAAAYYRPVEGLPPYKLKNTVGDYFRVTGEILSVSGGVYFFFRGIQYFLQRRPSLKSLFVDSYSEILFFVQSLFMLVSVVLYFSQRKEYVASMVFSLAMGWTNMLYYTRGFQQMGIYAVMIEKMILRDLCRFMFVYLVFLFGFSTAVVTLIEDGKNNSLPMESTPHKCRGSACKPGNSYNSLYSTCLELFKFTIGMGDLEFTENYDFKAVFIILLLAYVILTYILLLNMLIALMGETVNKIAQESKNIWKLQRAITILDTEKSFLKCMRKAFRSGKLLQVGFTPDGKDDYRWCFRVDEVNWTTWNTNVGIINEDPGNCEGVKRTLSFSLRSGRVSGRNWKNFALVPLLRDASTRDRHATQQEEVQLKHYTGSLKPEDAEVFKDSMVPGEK
Procedure: To evaluate the possible affinity of different analogues to the vanilloid site of TRPV1, a [^3H]-resiniferatoxin ([^3H]-RTX) binding assay was performed as previously described (Galli et al. 2004 and Lee et al., 2006). Briefly, rats spinal cord were homogenized in buffer A (pH 7.4, 5 mM KCl, 5.8 mM NaCl, 2 mM MgCl2, 0.75 mM CaCl2, 137 mM sucrose, and 10 mM HEPES) and centrifuged for 10 minutes at 1000 g at 4° C. and the supernatant was further centrifuged for 30 min at 35,000 g at 4° C. The resulting pellets were than resuspended in buffer A and frozen until assayed. The binding reaction was performed in a final volume of 500 μL, containing buffer A (plus 0.25 mg/mL bovine serum albumin, BSA), membranes (0.5 mg/mL), and 2 nM [^3H]-RTX in the presence or absence of analogues of 1 (10 μM). For the measurement of the nonspecific binding, 100 μM nonradioactive RTX were included used. The reaction was started by incubating tubes at 37° C. during 60 minutes, and stopped by transferring the tubes to ice bath and adding 100 μg of bovine α1-acid glycoprotein (to reduce nonspecific binding). […] The pellet was used to quantify the scintillation counting. The specific binding was calculated as the difference of the total and nonspecific binding and the results were measured as % of specific binding.

[4] = tested on: cervical cancer cell line HeLa; experiment: Cell viability (Cell Titer 96 Aqueous), HeLa; assay type: cell-based, human; settings: 48 hours; potency order P10, polygodial, P3
From the text: Human cancer cell lines were obtained from the American Type Culture Collection (ATCC, Manassas, Va., USA), the European Collection of Cell Culture (ECACC, Salisbury, UK) and the Deutsche Sammlung von Mikroorganismen und Zellkulturen (DSMZ, Braunschweig, Germany). The OSCC cell lines, Cal27 and HSC3 are derived from human primary tongue tumor. Cal27 cells were obtained from the American Type Culture Collection (Rockville, Md.). HSC3 cells were provided by Dr. Brian Schmidt. HeLa cells (cervical cancer cell line) were obtained from ATCC. Cells were cultured in DMEM, containing 10% FBS and 1% penicillin-streptomycin media, at 37° C. in 5% CO2. All cells were authenticated by Genetic DNA Laboratories.
The cytotoxicity of polygodial, P10, P3, and P27 in Cal27, HSC3, and HeLa cells was examined in vitro using a colorimetric assay, Cell Titer 96® Aqueous Non-Radioactive Cell Proliferation Assay. […] GraphPad Prism4 was used to perform statistical analysis.

HSC3 cells = experiment: Calcium imaging, HSC3; assay type: cell-based, human; settings: for calcium influx, HSC3: polygodial 80 μM, P10 4 μM, P3 50 μM

Compound | GI50 [1] [µM] | effect on proliferation/viability of all cells, A549 ([1]; apoptosis-resistant A549 NSCLC, concentrations up to 100 μM) | GI50 ([2]; 72 h treatment) [µM] | inhibition of specific binding of [3H]-resiniferatoxin (RTX) ([3]; 10 μM) | cancer cell viability, HeLa [4] | calcium influx, HSC3 (HSC3 cells) | GI50 ([1]; Homo sapiens, A549) [µM] | GI50 ([2]; Homo sapiens, MCF7, 72 h treatment) [µM] | inhibition at 10 µM ([3]; read-out: inhibition of specific binding of [3H]-resiniferatoxin (RTX)) [%] | reversal of calcium influx by capsazepine, HSC3 (HSC3 cells; CPZ 10 μM)
COC(=O)/C=C/C1=CC[C@H]2C(C)(C)CCC[C@]2(C)[C@H]1C=O [Compound 5] | 21 | growth inhibitory properties against most of the cells | 7 | failed to show any activity | reduced cancer cell viability in vitro | did not induce calcium influx | – | – | – | –
CC1(C)CCC[C@]2(C)[C@@H](C=O)C(C=O)=CC[C@@H]12 [Compound 1, Polygodial] | – | – | – | – | reduced cancer cell viability in vitro | did induce calcium influx | 90 | 75 | 76 | inhibited by CPZ
